Experimental data: patent publication US20100160255A1, “SPIRO-CYCLIC COMPOUND” (Takeda Pharmaceutical Company Limited, priority 2005, published 2010)
Like-named read-outs stand apart in the source and are kept apart here.

Columns and labels:
human ACC1 = biological target: T1, human ACC1 (Homo sapiens, UniProt Q13085); experiment: ACC1 inhibitory activity (malachite green absorbance assay, recombinant enzyme); type: biochemical
T1 construct: made in house; host or cells: SF-9 insect cells, recombinant baculovirus BAC-ACC1
Procedure: The ACC1 inhibitory activity of the compound of the present invention was evaluated by the following method.
(§1) Human ACC1 gene was cloned by PCR using human liver cDNA library (Clontech) as a template, and Primer 1 and Primer 2 shown below. Primer 1 and Primer 2 were prepared by adding recognition sequence of restriction enzymes SalI and NotI based on the information of the base sequence (Genbank Accession U19822) of human ACC1 gene.
(§2) PCR was performed using Pyrobest DNA polymerase (TAKARA BIO INC.). The obtained PCR product was cloned to pT7 Blue vector (Novagen) which was, after confirmation of the base sequence, digested with restriction enzymes SalI and NotI. The obtained DNA fragment was inserted into pFAST-BacHTc (Invitrogen) digested with restriction enzymes SalI and NotI to give expression plasmid ACC1/pFAST-BacHTc.
Using the expression plasmid and BAC-TO-BAC Baculovirus Expression System (Invitrogen), virus stock BAC-ACC1 of recombinant Baculovirus was prepared.
(§3) SF-9 cells (Invitrogen) were sown at 1×10^6 cells/mL to insect cell culture medium (1 L, Sf-900II SFM medium (Invitrogen) containing 10% fetal bovine serum (Trace), 50 mg/L gentamicin (Invitrogen) and 0.1% Pluronic F-68 (Invitrogen)), and shaking culture was performed using a 2 L volume Erlenmeyer flask at 27° C., 100 rpm.
After culturing for 24 hr, the recombinant Baculovirus BAC-ACC1 (10 mL) was added, and the mixture was further cultured for 3 days. The culture medium was centrifuged at 1000×g for 5 min to give virus-infected cells. The infected cells were washed with phosphate buffered saline (Invitrogen) and centrifuged under the same conditions, and the obtained cells were cryopreserved at −80° C.
The cryopreserved cells were thawed in ice, suspended in 25 mM HEPES buffer (100 mL, pH 7.5) containing 10% Glycerol, 0.13 M NaCl, 1 mM EDTA, 25 mM sodium β-glycerophosphate, 1 mM sodium orthovanadate, added with Complete Protease Inhibitor (Boehringer). The obtained suspension was homogenized 3 times with a Polytron homogenizer (Kinematica) at 20,000 rpm for 30 seconds. The obtained cell disrupt solution was clarified by centrifugation at 185700×g for 50 min and filtrated using a 0.45 μm filter. The filtrate was passed through a column packed with Ni-NTA Super Flow Gel (QIAGEN, 12 mL) at a flow rate of about 5 mL/min. The column was washed with buffer A (50 mM HEPES containing 0.3M NaCl, pH 7.5), further washed with buffer A containing 20 mM Imidazole, and eluted with buffer A containing 100 mM Imidazole. The eluate was concentrated with Vivaspin 20 (Vivascience) having a molecular weight cut off of 30 K. The obtained concentrate was dialyzed using Sephadex G-25 (Amersham Bioscience K.K., 358 mL) equilibrated with 50 mM HEPES (pH7.5) containing 10 mM MgCl2, 2 mM dithiothreitol, 10 mM tripotassium citrate and 0.3M NaCl. The dialysate was concentrated with Vivaspin 20 (Vivascience) having a molecular weight cut off of 30 K and the concentrate was filtered through a 0.22 μm filter to give ACC1. The obtained ACC1 was cryopreserved at −80° C.
ACC1 (0.93 mg/ml) obtained in (2) above was diluted to a concentration of 8 μg/ml with an enzyme reaction buffer (50 mM HEPES (pH7.5), 10 mM MgCl2, 10 mM tripotassium citrate, 2 mM dithiothreitol, 0.75 mg/ml fatty acid free BSA), and added to each well of a 384 well assay plate (Nunc 265196) by 10 μl. […]

human ACC2 = biological target: T2, human ACC2 (Homo sapiens, UniProt O00763); experiment: ACC2 inhibitory activity (malachite green absorbance assay, recombinant ACC2(Nd)); type: biochemical
T2 construct: made in house; host or cells: SF-9 insect cells, recombinant baculovirus BAC-ACC2(Nd)
Procedure: The ACC2 inhibitory activity of the compound of the present invention was evaluated by the following method.
as §1, with “ACC2” for “ACC1”, “skeletal muscle” for “liver”, “XbaI” for “NotI”, “U89344)” for “U19822)”
as §2, with “XbaI.” for “NotI.”, “pFAST-BacHTa” for “pFAST-BacHTc”, “XbaI” for “NotI”, “ACC2/pFAST-BacHTa.” for “ACC1/pFAST-BacHTc.”
A plasmid for expression of ACC2 free of mitochondrial targeting sequence was prepared by PCR using the expression plasmid as a template, and Primer 3 and Primer 4 shown below.
as §2, with “AflII.” for “NotI.”, “pFAST-BacHTa” for “pFAST-BacHTc”, “AflII” for “NotI”, “ACC2mito7/pFAST-BacHTa.” for “ACC1/pFAST-BacHTc.”
Using the expression plasmid and BAC-TO-BAC Baculovirus Expression System (Invitrogen), virus stock BAC-ACC2 of recombinant Baculovirus (N terminal deletion (hereinafter Nd)) was prepared.
as §3, with “0.5×10^6” for “1×10^6”, “(2” for “(1”, “Wave Bioreactor (Wave) under the conditions of” for “2 L volume Erlenmeyer flask at”, “20 rpm, rocking angle of 6° and oxygen concentration of 30%.” for “100 rpm.”
On day 4 of the culture, 3 L of an insect cell culture medium was added, the rocking angle was set to 8°, and the cells were further cultured. On day 5 of the culture, the recombinant Baculovirus BAC-ACC2(Nd) (100 mL) was added, 5 L of the insect cell culture medium was further added, the rocking angle was set to 11°, and the cells were cultured for 3 days. The culture medium was centrifuged at 1000×g for 10 min to give virus-infected cells. The infected cells were washed with phosphate buffered saline (Invitrogen) and centrifuged under the same conditions, and the obtained cells were cryopreserved at −80° C.
The cryopreserved cells were thawed in ice, suspended in 25 mM HEPES buffer (900 mL, pH 7.5) containing 10% Glycerol, 0.13 M NaCl, 1 mM EDTA, 25 mM sodium β-glycerophosphate, 1 mM sodium orthovanadate, added with Complete Protease Inhibitor (Boehringer). The obtained suspension was homogenized 3 times with a Polytron homogenizer (Kinematica) at 20,000 rpm for 30 seconds. The obtained cell disrupt solution was clarified by centrifugation at 31000×g for 60 min and filtrated using a 0.45 μm filter. The filtrate was passed through a column packed with Ni-NTA Super Flow Gel (QIAGEN, 60 mL) at a flow rate of about 5 mL/min. The column was washed with buffer A (50 mM HEPES containing 0.3M NaCl, pH 7.5), further washed with buffer A containing 20 mM Imidazole, and eluted with buffer A containing 100 mM Imidazole. The eluate was concentrated with Vivaspin 20 (Vivascience) having a molecular weight cut off of 30 K. The obtained concentrate was dialyzed against 50 mM HEPES (pH7.5) containing 10 mM MgCl2, 2 mM dithiothreitol, 10 mM tripotassium citrate and 0.3M NaCl. The dialysate was filtered through a 0.22 μm filter to give ACC2(Nd). The obtained ACC2(Nd) was cryopreserved at −80° C. […]

[1] = Table 8, recombinant human ACC1, 30° C., absorbance 620 nm, read-out: IC50 (ACC1 inhibitory activity)
[2] = Table 9, recombinant human ACC2(Nd), N terminal deletion, 30° C., absorbance 620 nm, read-out: IC50 (ACC2 inhibitory activity)
[3] = Experimental Example 3, same manner as Experimental Example 1, read-out: IC50 values (ACC1 inhibitory activity)

T2 sequence (O00763 117-2458 limits assumed): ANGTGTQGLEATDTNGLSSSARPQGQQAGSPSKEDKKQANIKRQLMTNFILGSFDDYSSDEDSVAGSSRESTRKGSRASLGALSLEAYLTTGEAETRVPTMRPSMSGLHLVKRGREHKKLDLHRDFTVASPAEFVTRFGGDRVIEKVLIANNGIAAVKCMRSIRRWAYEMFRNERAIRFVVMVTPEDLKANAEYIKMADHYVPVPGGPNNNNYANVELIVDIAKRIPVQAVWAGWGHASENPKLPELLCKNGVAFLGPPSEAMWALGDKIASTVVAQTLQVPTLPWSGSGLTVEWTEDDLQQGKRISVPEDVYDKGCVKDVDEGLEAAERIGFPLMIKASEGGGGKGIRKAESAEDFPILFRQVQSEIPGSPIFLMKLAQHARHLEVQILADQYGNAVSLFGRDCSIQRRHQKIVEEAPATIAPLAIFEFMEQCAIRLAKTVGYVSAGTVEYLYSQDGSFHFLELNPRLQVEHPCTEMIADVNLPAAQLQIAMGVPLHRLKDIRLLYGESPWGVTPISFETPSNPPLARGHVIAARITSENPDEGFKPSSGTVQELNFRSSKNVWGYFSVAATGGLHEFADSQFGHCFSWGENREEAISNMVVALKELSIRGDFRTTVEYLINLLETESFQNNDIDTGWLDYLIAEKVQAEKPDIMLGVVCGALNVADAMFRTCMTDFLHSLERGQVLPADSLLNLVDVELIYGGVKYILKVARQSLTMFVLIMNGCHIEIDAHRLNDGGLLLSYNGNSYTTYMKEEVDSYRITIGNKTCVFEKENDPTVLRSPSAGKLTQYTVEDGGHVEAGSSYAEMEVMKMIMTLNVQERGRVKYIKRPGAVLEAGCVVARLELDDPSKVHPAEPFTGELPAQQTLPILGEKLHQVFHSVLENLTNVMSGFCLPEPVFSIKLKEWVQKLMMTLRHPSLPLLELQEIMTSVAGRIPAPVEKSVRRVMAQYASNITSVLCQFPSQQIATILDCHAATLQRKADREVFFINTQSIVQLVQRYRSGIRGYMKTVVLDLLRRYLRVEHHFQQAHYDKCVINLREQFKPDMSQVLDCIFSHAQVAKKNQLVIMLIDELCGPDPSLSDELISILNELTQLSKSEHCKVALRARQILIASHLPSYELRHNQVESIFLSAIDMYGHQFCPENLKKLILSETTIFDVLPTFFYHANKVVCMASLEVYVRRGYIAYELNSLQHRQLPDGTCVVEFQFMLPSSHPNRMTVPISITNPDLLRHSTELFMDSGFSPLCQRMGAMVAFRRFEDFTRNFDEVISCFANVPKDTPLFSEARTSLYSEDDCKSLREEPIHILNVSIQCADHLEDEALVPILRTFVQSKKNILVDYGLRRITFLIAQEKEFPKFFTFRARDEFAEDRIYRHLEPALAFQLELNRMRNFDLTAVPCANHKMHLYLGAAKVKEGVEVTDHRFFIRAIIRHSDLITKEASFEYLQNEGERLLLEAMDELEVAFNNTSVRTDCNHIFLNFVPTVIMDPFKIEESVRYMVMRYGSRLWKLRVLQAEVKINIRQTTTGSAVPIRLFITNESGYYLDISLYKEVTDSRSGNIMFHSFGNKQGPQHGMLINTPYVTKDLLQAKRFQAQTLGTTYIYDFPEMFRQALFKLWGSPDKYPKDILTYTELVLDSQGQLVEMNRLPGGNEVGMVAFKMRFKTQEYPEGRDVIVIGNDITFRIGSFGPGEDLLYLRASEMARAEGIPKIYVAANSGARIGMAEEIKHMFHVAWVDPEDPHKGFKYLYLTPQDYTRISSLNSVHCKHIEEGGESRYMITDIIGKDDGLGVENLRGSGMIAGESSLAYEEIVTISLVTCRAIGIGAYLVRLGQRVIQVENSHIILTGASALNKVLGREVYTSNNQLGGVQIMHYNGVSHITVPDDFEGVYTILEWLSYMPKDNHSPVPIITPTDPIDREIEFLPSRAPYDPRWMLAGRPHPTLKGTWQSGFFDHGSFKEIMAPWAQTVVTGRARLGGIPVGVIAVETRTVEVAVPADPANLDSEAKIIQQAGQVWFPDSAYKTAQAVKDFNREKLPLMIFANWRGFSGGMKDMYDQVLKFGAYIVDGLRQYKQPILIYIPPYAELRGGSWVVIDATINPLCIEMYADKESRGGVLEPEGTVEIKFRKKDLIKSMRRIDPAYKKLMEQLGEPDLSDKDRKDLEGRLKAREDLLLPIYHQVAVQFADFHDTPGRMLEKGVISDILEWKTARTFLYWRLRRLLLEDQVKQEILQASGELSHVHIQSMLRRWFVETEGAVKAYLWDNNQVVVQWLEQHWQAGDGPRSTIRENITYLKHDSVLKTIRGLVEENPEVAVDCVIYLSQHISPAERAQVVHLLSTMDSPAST

Row | Structure (SMILES) | IC50 (human ACC1; [1]) | IC50 (human ACC2; [2]) | IC50 (human ACC1; [3]) | IC50 (human ACC2; Experimental Example 4, same manner as Experimental Example 2, read-out: IC50 values (ACC2 inhibitory activity))
1 | CCN1C(=O)CC2(CCCN(C3CCN(C(=O)c4c(NC(N)=O)sc5ccccc45)CC3)C2)C1=O (centres unmarked) [Example 340, 1-(3-{[4-(2-ethyl-1,3-dioxo-2,7-diazaspiro[4.5]dec-7-yl)piperidin-1-yl]carbonyl)-1-benzothien-2-yl)urea] | 0.13 µM | 0.022 µM |  | 
2 | CCCN1C(=O)OC2(CCCN(C3CCN(C(=O)c4c(NC(N)=O)sc5ccccc45)CC3)C2)C1=O (centres unmarked) [Example 343, N-(3-{[4-(2,4-dioxo-3-propyl-1-oxa-3,7-diazaspiro[4.5]dec-7-yl)piperidin-1-yl]carbonyl}-1-benzothien-2-yl)urea] | 0.34 µM | 0.03 µM |  | 
3 | CCN1C(=O)OC2(CCCN(C3CCN(C(=O)c4c(NC(=O)NC)sc5ccccc45)CC3)C2)C1=O (centres unmarked) [Example 347, N-(3-{[4-(3-ethyl-2,4-dioxo-1-oxa-3,7-diazaspiro[4.5]dec-7-yl)piperidin-1-yl]carbonyl)-1-benzothien-2-yl)-N′-methylurea] | 0.31 µM | 0.034 µM |  | 
4 | CCCN1CCC2(CCCN(C3CCN(C(=O)c4c(NC(N)=O)sc5ccccc45)CC3)C2)C1=O (centres unmarked) [Example 352, N-(3-{[4-(1-oxo-2-propyl-2,7-diazaspiro[4.5]dec-7-yl)piperidin-1-yl]carbonyl}-1-benzothien-2-yl)urea] | 0.29 µM | 0.041 µM |  | 
5 | CNC(=O)Nc1sc2ccccc2c1C(=O)N1CCC(N2CCCC3(CCN(C(C)C)C3=O)C2)CC1 (centres unmarked) [Example 360, N-(3-{[4-(2-isopropyl-1-oxo-2,7-diazaspiro[4.5]dec-7-yl)piperidin-1-yl]carbonyl}-1-benzothien-2-yl)-N′-methylurea] | 0.11 µM | 0.022 µM |  | 
6 | CCN1C(=O)CC2(CCCN(C3CCN(C(=O)c4c(NC(=O)NC)sc5ccccc45)CC3)C2)C1=O (centres unmarked) [Example 363, N-(3-{[4-(2-ethyl-1,3-dioxo-2,7-diazaspiro[4.5]dec-7-yl)piperidin-1-yl]carbonyl}-1-benzothien-2-yl)-N′-methylurea] | 0.34 µM | 0.056 µM |  | 

The next lines start with the values.

Row | IC50 (human ACC1; [1]) | IC50 (human ACC2; [2]) | IC50 (human ACC1; [3]) | IC50 (human ACC2; Experimental Example 4, same manner as Experimental Example 2, read-out: IC50 values (ACC2 inhibitory activity)) | Structure (SMILES)
7 | 0.18 µM | 0.018 µM |  |  | CC(C)N1C(=O)CC2(CCCN(C3CCN(C(=O)c4c(NC(N)=O)sc5ccccc45)CC3)C2)C1=O (centres unmarked) [Example 366, N-(3-{[4-(2-isopropyl-1,3-dioxo-2,7-diazaspiro[4.5]dec-7-yl)piperidin-1-yl]carbonyl}-1-benzothien-2-yl)urea]
8 | 0.21 µM | 0.045 µM |  |  | CCNC(=O)Nc1sc2ccccc2c1C(=O)N1CCC(N2CCCC3(CC(=O)N(C)C3=O)C2)CC1 (centres unmarked) [Example 380, N-ethyl-N′-(3-{[4-(2-methyl-1,3-dioxo-2,7-diazaspiro[4.5]dec-7-yl)piperidin-1-yl]carbonyl}-1-benzothien-2-yl)urea]
9 | 0.22 µM | 0.039 µM |  |  | CC(C)NC(=O)Nc1sc2ccccc2c1C(=O)N1CCC(N2CCCC3(CC(=O)NC3=O)C2)CC1 (centres unmarked) [Example 397, N-(3-{[4-(1,3-dioxo-2,7-diazaspiro[4.5]dec-7-yl)piperidin-1-yl]carbonyl}-1-benzothien-2-yl)-N′-isopropylurea]
10 | 0.097 µM | 0.013 µM | ≤ 0.1 µM |  | CCNC(=O)Nc1sc2ccccc2c1C(=O)N1CCC(N2CCCC3(CCN(CC)C3=O)C2)CC1 (centres unmarked) [Example 400, N-ethyl-N′-(3-{[4-(2-ethyl-1-oxo-2,7-diazaspiro[4.5]dec-7-yl)piperidin-1-yl]carbonyl}-1-benzothien-2-yl)urea]
11 | 0.073 µM | 0.015 µM | ≤ 0.1 µM |  | CCNC(=O)Nc1sc2ccccc2c1C(=O)N1CCC(N2CCCC3(C2)N=C(C)N(CC)C3=O)CC1 (centres unmarked) [Example 401, 1-ethyl-3-(3-{[4-(3-ethyl-2-methyl-4-oxo-1,3,7-triazaspiro[4.5]dec-1-en-7-yl)piperidin-1-yl]carbonyl}-1-benzothien-2-yl)urea]
12 |  |  | ≤ 0.1 µM | ≤ 0.01 µM | CCNC(=O)Nc1sc2c(c1C(=O)N1CCC(N3CCCC4(C3)OC(=O)N(C(C)(C)C)C4=O)CC1)CCCC2=O (centres unmarked) [Example 420, N-(3-{[4-(3-tert-butyl-2,4-dioxo-1-oxa-3,7-diazaspiro[4.5]dec-7-yl)piperidin-1-yl]carbonyl}-7-oxo-4,5,6,7-tetrahydro-1-benzothien-2-yl)-N′-ethylurea]
